Results as given in ChEMBL document CHEMBL4364346, “Structure optimization of a new class of PPARγ antagonists” (Bioorg Med Chem, 2019).
Values after ≈ are worked out from the molar mass of the structure shown. Active and inactive are the calls of the source. The rule behind the calls is not given here.

What was measured:
[1] = molecular target: T1, Bile acid receptor (Homo sapiens) (UniProt Q96RI1); test: Agonist activity at recombinant human pFA-CMV fused FXR LBD transfected in HEK293T cells assessed as FXR activation at 1 uM incubated for 12 to 14 hrs by dual glo luciferase reporter gene assay; format: cell-based
T1 sequence (whole entry): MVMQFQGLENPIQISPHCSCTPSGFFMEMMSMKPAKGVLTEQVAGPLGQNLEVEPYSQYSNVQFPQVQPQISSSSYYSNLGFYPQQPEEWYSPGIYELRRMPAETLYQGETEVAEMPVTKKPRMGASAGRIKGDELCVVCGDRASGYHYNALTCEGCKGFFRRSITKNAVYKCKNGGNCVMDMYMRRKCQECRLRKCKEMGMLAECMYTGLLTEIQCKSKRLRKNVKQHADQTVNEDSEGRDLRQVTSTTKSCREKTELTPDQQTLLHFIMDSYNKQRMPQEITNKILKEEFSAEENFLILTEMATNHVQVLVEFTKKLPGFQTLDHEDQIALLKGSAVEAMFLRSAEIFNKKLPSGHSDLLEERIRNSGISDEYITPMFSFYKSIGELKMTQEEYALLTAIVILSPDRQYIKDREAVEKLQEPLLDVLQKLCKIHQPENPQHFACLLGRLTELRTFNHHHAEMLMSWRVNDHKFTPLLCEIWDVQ

[2] = Plasma concentration in Swiss CD1 mouse at 1 mg/kg, ip measured upto 3 hrs by LC-MS analysis; format: ADME, organism-based
[3] = Solubility of compound in PBS buffer pH 7.4 with 1% DMSO measured after 1 and 24 hrs; format: physicochemical; settings: PBS buffer with 1% DMSO
[4] = Tmax in Swiss CD1 mouse at 10 mg/kg, ip measured upto 7 hrs by LC-MS analysis; format: ADME, organism-based; settings: in vivo
[5] = Metabolic stability in Sprague-Dawley rat liver microsomes assessed as half life at […] incubated for 60 mins; format: ADME, Microsome
[6] = molecular target: T2, Peroxisome proliferator-activated receptor delta (Homo sapiens) (UniProt Q03181); test: Agonist activity at recombinant human pFA-CMV fused PPARdelta LBD transfected in HEK293T cells assessed as PPARdelta activation at 1 uM incubated for 12 to 14 hrs by dual glo luciferase reporter gene assay; format: cell-based
T2 sequence (whole entry): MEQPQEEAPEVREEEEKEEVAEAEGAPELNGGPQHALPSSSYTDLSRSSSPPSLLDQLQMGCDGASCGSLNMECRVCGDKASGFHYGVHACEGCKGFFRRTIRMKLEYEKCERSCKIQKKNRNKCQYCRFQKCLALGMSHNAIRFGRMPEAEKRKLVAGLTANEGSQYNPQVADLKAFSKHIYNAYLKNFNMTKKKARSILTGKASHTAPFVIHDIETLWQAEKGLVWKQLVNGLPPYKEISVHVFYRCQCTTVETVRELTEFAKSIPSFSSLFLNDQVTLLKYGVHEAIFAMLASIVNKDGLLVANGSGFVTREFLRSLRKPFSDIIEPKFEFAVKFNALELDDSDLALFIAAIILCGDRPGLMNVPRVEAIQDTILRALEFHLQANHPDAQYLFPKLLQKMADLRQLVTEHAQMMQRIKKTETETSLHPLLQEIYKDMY

[7] = molecular target: T3, Peroxisome proliferator-activated receptor gamma (Homo sapiens, UniProt P37231); test: Antagonist actvity in pFA-GAL4-DBD fused PPARgamma LBD (unknown origin) transfected in HEK293T cells assessed as inhibition of rosiglitazone-induced PPARgamma transactivation incubated for 24 hrs by luciferase reporter gene assay; format: cell-based; settings: read-out: IC50
T3 sequence (P37231 whole entry): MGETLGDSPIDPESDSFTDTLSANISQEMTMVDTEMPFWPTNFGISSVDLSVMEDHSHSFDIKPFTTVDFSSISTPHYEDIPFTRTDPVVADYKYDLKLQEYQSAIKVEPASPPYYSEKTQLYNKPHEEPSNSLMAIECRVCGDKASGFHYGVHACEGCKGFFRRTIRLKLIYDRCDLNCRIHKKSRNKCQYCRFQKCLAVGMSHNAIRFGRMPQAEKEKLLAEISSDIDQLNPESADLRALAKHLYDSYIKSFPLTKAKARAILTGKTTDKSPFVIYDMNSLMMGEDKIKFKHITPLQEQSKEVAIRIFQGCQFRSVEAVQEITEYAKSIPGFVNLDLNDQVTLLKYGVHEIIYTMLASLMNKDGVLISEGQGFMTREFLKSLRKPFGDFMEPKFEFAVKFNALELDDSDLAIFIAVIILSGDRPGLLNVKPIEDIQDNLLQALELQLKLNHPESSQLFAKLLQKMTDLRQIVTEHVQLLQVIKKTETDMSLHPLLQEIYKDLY

[8] = molecular target: Oxysterols receptor LXR-alpha (Homo sapiens) (UniProt Q13133); test: Antagonist activity at recombinant human pFA-CMV fused LXRalpha LBD transfected in HEK293T cells assessed as reduction in T0901317-induced LXRalpha activation at 1 uM incubated for 12 to 14 hrs by dual glo luciferase reporter gene assay
[9] = AUC (0 to 3 hrs) in Swiss CD1 mouse at 1 mg/kg, ip measured upto 3 hrs by LC-MS analysis; format: ADME, organism-based; set-up: dose 1 mg/kg, time < 3 hr, route intraperitoneal; settings: in vivo
[10] = molecular target: T4, Peroxisome proliferator-activated receptor alpha (Homo sapiens) (UniProt Q07869); test: Agonist activity at recombinant human pFA-CMV fused PPARalpha LBD transfected in HEK293T cells assessed as PPARalpha activation at 1 uM incubated for 12 to 14 hrs by dual glo luciferase reporter gene assay; format: cell-based
T4 sequence (whole entry): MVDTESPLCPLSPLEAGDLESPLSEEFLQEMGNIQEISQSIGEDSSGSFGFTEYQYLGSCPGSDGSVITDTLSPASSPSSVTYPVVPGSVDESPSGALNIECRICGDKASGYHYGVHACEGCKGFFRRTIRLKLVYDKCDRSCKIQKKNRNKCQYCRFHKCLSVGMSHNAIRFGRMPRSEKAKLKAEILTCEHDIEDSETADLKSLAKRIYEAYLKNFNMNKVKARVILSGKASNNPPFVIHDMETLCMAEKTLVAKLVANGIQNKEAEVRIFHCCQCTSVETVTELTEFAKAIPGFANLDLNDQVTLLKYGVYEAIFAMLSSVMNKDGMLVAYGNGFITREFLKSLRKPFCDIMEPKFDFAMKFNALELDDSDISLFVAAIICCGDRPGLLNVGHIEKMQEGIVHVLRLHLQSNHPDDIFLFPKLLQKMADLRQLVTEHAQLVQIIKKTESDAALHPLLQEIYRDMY

[11] = Cmax in Swiss CD1 mouse at 10 mg/kg, ip measured upto 7 hrs by LC-MS analysis; format: ADME, organism-based; set-up: dose 10 mg/kg, route intraperitoneal; settings: in vivo

Oxysterols receptor LXR-alpha (Homo sapiens), sequence (Q13133 whole entry, looked up, the tested form may be a part): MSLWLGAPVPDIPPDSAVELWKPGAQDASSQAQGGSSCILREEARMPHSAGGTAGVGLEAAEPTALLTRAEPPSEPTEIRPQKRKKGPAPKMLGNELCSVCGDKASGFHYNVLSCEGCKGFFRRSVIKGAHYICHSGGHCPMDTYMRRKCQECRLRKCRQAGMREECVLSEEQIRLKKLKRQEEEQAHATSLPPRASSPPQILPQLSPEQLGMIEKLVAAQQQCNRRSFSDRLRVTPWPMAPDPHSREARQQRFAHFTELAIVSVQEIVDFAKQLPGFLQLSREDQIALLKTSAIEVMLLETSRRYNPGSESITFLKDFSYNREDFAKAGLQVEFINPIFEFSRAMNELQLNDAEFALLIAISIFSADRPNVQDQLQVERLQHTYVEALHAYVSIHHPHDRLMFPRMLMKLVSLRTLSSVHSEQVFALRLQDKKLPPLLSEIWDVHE

Compound	Activity [1]	concentration at 3 h [2] [nM]	solubility at 24 h [3] [µM]	Tmax [4] [h]	half-life [5] [h]	Activity [6]	IC50 [7] [µM]	Activity [8]	AUC(0-t) at 3 h [9] [ng·h/mL]	Activity [10]	Cmax [11] [nM]
CCC/C(=C\c1cc(OCc2ccc3nc(C(F)(F)F)cc(OC)c3c2)ccc1OCCN1CCN(C)CC1)C(=O)O	inactive	9.5	200 to 250 (≈ 118 to 147 µg/mL)	0.25	> 1	inactive	4.7	inactive	112	inactive	446
CCC/C(=C\c1cc(OCc2ccc3nc(C(F)(F)F)cc(OC)c3c2)ccc1OCC1CCN(C)CC1)C(=O)O	inactive	14	125 to 150 (≈ 71.6 to 85.9 µg/mL)	2	> 1	inactive	2.5	inactive	101	inactive	380
